Source: publication PMC7997032, “Organic synthesis and anti-influenza A virus activity of cyclobakuchiols A, B, C, and D” (PLoS ONE, 2021)
“And” between values parts separate entries of the source, which are not always exact repeats. Equal entries are not always repeated.

Experiments:
[1] = tested on: canine interferon-β (Ifn-β); experiment: RT-qPCR of Ifn-β mRNA in MDCK cells with or without A/PR/8/34 virus; type: cell-based; settings: 12.5uM, relative to virus - DMSO; for MDCK IFN-b mRNA, ave: ave of #1-3 exp; for MDCK IFN-b mRNA, individual replicates: replicates 1-3 of #1, #2, #3 exp, listed as Cyclobakuchiol A
A/WSN/33 virus [2] = experiment: Influenza A viral growth assay (viral titer of culture media); type: cell-based, influenza A H1N1 virus; settings: A/WSN/33 (WSN), 12.5uM, average of #1-3 exp (n=9)
A/PR/8/34 virus [3] = experiment: as above; type: cell-based, influenza A H1N1 virus; set-up: viral titer of culture media, individual replicate / viral titer of culture media, ave: unit not given here; settings: A/PR/8/34 (PR8), 12.5uM, average of #1-3 exp (n=9)
[4] = tested on: NAD(P)H quinone oxidoreductase 1 (Nqo1); experiment: RT-qPCR of Nqo1 mRNA in MDCK cells with or without A/PR/8/34 virus; type: cell-based, canine; settings: for NQO1 Canis lupus mRNA, ave / NQO1 Canis lupus mRNA, individual replicates: 12.5uM, MDCK, relative to virus - DMSO; for NQO1 Canis lupus mRNA, ave: ave of #1-3 exp; for NQO1 Canis lupus mRNA, individual replicates: replicates 1-3 of #1, #2, #3 exp, listed as Cyclobakuchiol A
A/PR/8/34 virus [5] = type: cell-based; settings: 12.5 μM
Nrf2 = Nrf2 reporter assay (dual luciferase system) in MDCK cells; type: cell-based, canine
Method: An Nrf2 reporter assay based on the dual luciferase system was performed as previously described. The plasmid pNQO1-ARE (antioxidant response element)-Fluc, provided by Yamamoto M., expressed a Firefly luciferase gene driven by Nrf2 activation, while the plasmid pRL-TK-Rluc vector (Promega, CA, USA) expressed a Renilla luciferase gene driven by the herpes simplex viral thymidine kinase promoter as an internal control. MDCK cells were seeded in a 24-well plate at 1 × 10^5 cells/well and transfected with pNQO1-ARE-luc (0.25 μg) and pRL-TK-Rluc (0.25 μg). At 24 h post-transfection, the cells were treated with 12.5 μM cyclobakuchiols A–D in the infection medium at 37°C under 5% CO2. DMSO (0.125%) and 12.5 μM 1 were used as negative and positive controls, respectively. Total RNA was extracted from the MDCK cell lysates after 24 h of incubation. The levels of Firefly and Renilla luciferase mRNAs were analyzed by RT-qPCR and normalized to that of β-actin mRNA.

A/PR/8/34 virus [6] = experiment: Immunofluorescence staining of viral NP in influenza A virus-infected MDCK cells; settings: for NP/DAPI (%) ave: average of 9 wells
A/WSN/33 virus [7] = experiment: as above; settings: WSN
Method: MDCK cells were seeded on a 96-well plate at 1 × 10^4 cells/well. […] Each mixture was added to the cells at 37°C in the presence of 5% CO2. […] After influenza A viral infection for 24 h, the cells were fixed with 4% paraformaldehyde in phosphate-buffered saline (PBS) for 30 min at 4°C and subsequently permeabilized by the addition of 0.3% Triton X-100 for 20 min at 25°C. A mouse primary antibody was used to detect the NP of A/PR/8/34 or A/WSN/33 viruses (FluA-NP 4F1; SouthernBiotech, AL, USA). Alexa Fluor488-conjugated goat anti-mouse IgG (H + L) antibody (Thermo Fisher Scientific) was used as the secondary antibody. Cell nuclei were then stained using diamidino-2-phenylindole (DAPI) (Thermo Fisher Scientific). Wells were photographed using a fluorescence microscope (BIOREVO BZ-X700; Keyence, Osaka, Japan). The proportion of influenza A NP-positive cells per DAPI-positive cells was calculated based on measurements recorded using BZ-X Analyzer software (Keyence).

A/PR/8/34 virus [8] = experiment: RT-qPCR of viral mRNAs (NP, NS1, PA, PB1, PB2, M2) in infected MDCK cells; type: cell-based, influenza A H1N1 virus
[9] = 24h WB, average of 3 experiments
[10] = 24h WB, single experiment, listed as cyclo A
[11] = MDCK cells, PR8 virus, relative to DMSO (about 1), ave of #1-3 exp (9 values)
[12] = MDCK cells, PR8 virus, relative to DMSO, replicates 1-3 of #1, #2, #3 exp, listed as Cyclobakuchiol A

C=C[C@]1(C)CCC(C(=C)C)C(c2ccc(O)cc2)C1 (stereo in doubt) [cyclobakuchiol A]
MDCK IFN-b mRNA, ave ([1]; virus +): 3.338 | MDCK IFN-b mRNA, individual replicates ([1]; virus +): 0.977 and 7.49 and 3.1238 and 7.575 and 1.945 and 2.0516 and 3.014 and 1.296 and 2.57 | MDCK IFN-b mRNA, ave ([1]; virus -): 4.43 | MDCK IFN-b mRNA, individual replicates ([1]; virus -): 0.3432 and 9.774 and 14.2997 and 12.0611 and 0.902 and 0.6358 and 0.8443 and 0.4235 and 0.5869 | viral titer of culture media, ave (A/WSN/33 virus [2]; 12h): 10300 | viral titer of culture media, ave (A/WSN/33 virus [2]; 24h): 22944444 | viral titer of culture media, ave (A/WSN/33 virus [2]; 48h): 177111111 | viral titer of culture media, ave (A/WSN/33 virus [2]; 72h): 106555556 | viral titer of culture media, ave (A/PR/8/34 virus [3]; 12h): 31111.1 | viral titer of culture media, ave (A/PR/8/34 virus [3]; 48h): 28888.9 | viral titer of culture media, ave (A/PR/8/34 virus [3]; 72h): 20000 | relative mRNA level of Nqo1 compared with 4- and 5-treated cells [4]: significantly higher | NQO1 Canis lupus mRNA, ave ([4]; virus + (PR8)): 1.589 | NQO1 Canis lupus mRNA, individual replicates ([4]; virus + (PR8)): 2.006 and 1.48 and 1.365 and 1.506 and 1.318 and 1.456 and 1.551 and 1.721 and 1.896 | NQO1 Canis lupus mRNA, ave ([4]; virus -): 1.2966 | NQO1 Canis lupus mRNA, individual replicates ([4]; virus -): 1.091 and 1.486 and 1.24 and 1.353 and 1.444 and 1.092 and 1.099 and 1.4686 and 1.396 | relative mRNA level of Nqo1 compared with DMSO ([4]; without A/PR/8/34 virus, 12.5 μM, 24 h): significantly upregulated | NP/b-actin ave (A/PR/8/34 virus [5]; [9]): 0.4278 | NS1/b-actin ave (A/PR/8/34 virus [5]; [9]): 0.4825 | NP mean (western blot signal intensity, ImageJ) (A/PR/8/34 virus [5]; [10]): 46.861 and 57.758 and 73.552 | NP/b-actin (A/PR/8/34 virus [5]; [10]): 0.5523 and 0.2997 and 0.4315 | NS1/b-actin (A/PR/8/34 virus [5]; [10]): 0.4154 and 0.4658 and 0.5663 | NS1 mean (western blot signal intensity, ImageJ) (A/PR/8/34 virus [5]; [10]): 72.823 and 75.793 and 55.326 | expression level of NP protein compared with the 4 or 5 treatment groups (A/PR/8/34 virus [5]; 24 h post-infection, Fig 7C): significantly reduced | Nrf2 activation (reporter assay) in contrast to DMSO (Nrf2; 12.5 μM, 24 h, MDCK cells): induced | pNQO1-ARE-Luc NRF2 reporter assay, ave (Nrf2; 12.5uM, relative to DMSO trans+, ave of #1-3 exp): 1.46 | pNQO1-ARE-Luc NRF2 reporter assay, individual replicates (Nrf2; 12.5uM, relative to DMSO trans+, two values each of #1, #2, #3 exp, listed as Cyclobakuchiol A): 1.665 and 1.021 and 1.596 and 1.77 and 1.598 and 1.113 | percentage of influenza A NP-positive cells relative to DMSO (A/PR/8/34 virus [6]; A/PR/8/34, 3.1 μM, 24 h, Fig 4B): significantly reduced | NP/DAPI (%) ave (A/PR/8/34 virus [6]; A/PR/8/34, 3.13 uM): 4.608% | NP/DAPI (%) ave (A/PR/8/34 virus [6]; A/PR/8/34, 6.25 uM): 1.65% | NP/DAPI (%) ave (A/PR/8/34 virus [6]; A/PR/8/34, 12.5 uM): 1.121% | NP (NP-positive cell count) (A/PR/8/34 virus [6]; A/PR/8/34, 12.5 uM, single well, listed as Cyclobaku. A): 4 and 2 and 3 | NP/DAPI (%) ave (A/PR/8/34 virus [6]; A/PR/8/34, 25 uM): 0.8303% | NP/DAPI (%) (A/PR/8/34 virus [6]; A/PR/8/34, 25 uM, single well, listed as Cyclobaku. A): 2.804% and 0.7843% and 0.5666% and 0.5181% and 1.085% and 0.489% and 0.3145% and 0.3937% | IC50 (A/PR/8/34 virus [6]; Influenza A virus, PR/8, MDCK, read-out: half maximal (50%) inhibitory concentration (IC50)): 1700 ± 800 nM | NP/DAPI (%) ave (A/WSN/33 virus [7]; 3.13uM, ave of 9 values (3 exp)): 33.269% | NP/DAPI (%) ave (A/WSN/33 virus [7]; 6.25uM, ave of 9 values (3 exp)): 28.3611% | NP/DAPI (%) ave (A/WSN/33 virus [7]; 12.5uM, ave of 9 values (3 exp)): 27.0591% | NP/DAPI (%) ave (A/WSN/33 virus [7]; 25uM, ave of 9 values (3 exp)): 29.2459% | NP/DAPI (%) ave (A/WSN/33 virus [7]; ave summary, 3.13%): 33.269% | NP/DAPI (%) ave (A/WSN/33 virus [7]; ave summary, 6.25%): 28.3611% | NP/DAPI (%) ave (A/WSN/33 virus [7]; ave summary, 12.50%): 27.0591% | NP/DAPI (%) ave (A/WSN/33 virus [7]; ave summary, 25%): 29.2459% | reduction in the level of NP mRNA compared with 4 and 5 (A/PR/8/34 virus [8]; 12.5 μM, 24 h, Fig 6A): significantly stronger | reduction in the level of PB2 mRNA compared with 5 (A/PR/8/34 virus [8]; 12.5 μM, 24 h, Fig 6E): significantly stronger | PR8 NP gene expression qPCR, ave (A/PR/8/34 virus [8]; MDCK PR8, NP mRNA, relative (DMSO about 1), average of #1-3 exp (n=9)): 0.01993 | PR8 NP gene expression qPCR, individual replicate (A/PR/8/34 virus [8]; MDCK PR8, NP mRNA, relative (DMSO about 1), replicates of #1-3 exp, listed as Cyclobakuchiol A): 0.004781 and 0.02173 and 0.01679 and 0.02307 and 0.03646 and 0.02695 and 0.03647 and 0.007215 and 0.005883 | PR8 NS1 gene expression qPCR, ave (A/PR/8/34 virus [8]; MDCK PR8, NS1 mRNA, relative (DMSO about 1), average of #1-3 exp (n=9)): 0.01311 | PR8 NS1 gene expression qPCR, individual replicate (A/PR/8/34 virus [8]; MDCK PR8, NS1 mRNA, relative (DMSO about 1), replicates of #1-3 exp, listed as Cyclobakuchiol A): 0.006023 and 0.01703 and 0.01038 and 0.0146 and 0.02282 and 0.01557 and 0.01791 and 0.008546 and 0.005121 | PR8 PA gene expression qPCR, ave (A/PR/8/34 virus [8]; MDCK PR8, PA mRNA, relative (DMSO about 1), average of #1-3 exp (n=9)): 0.01493 | PR8 PA gene expression qPCR, individual replicate (A/PR/8/34 virus [8]; MDCK PR8, PA mRNA, relative (DMSO about 1), replicates of #1-3 exp, listed as Cyclobakuchiol A): 0.007746 and 0.01438 and 0.00964 and 0.01502 and 0.02904 and 0.01721 and 0.0228 and 0.01256 and 0.005972 | PR8 M2 gene expression qPCR, ave (A/PR/8/34 virus [8]; [11]): 0.01356 | PR8 PB1 gene expression qPCR, ave (A/PR/8/34 virus [8]; [11]): 0.01089 | PR8 PB2 gene expression qPCR, ave (A/PR/8/34 virus [8]; [11]): 0.01486 | PR8 M2 gene expression qPCR, individual replicates (A/PR/8/34 virus [8]; [12]): 0.006283 and 0.01574 and 0.01119 and 0.01541 and 0.02852 and 0.01303 and 0.01716 and 0.01044 and 0.004303 | PR8 PB1 gene expression qPCR, individual replicates (A/PR/8/34 virus [8]; [12]): 0.005833 and 0.007225 and 0.006699 and 0.007236 and 0.02285 and 0.01622 and 0.02095 and 0.006264 and 0.00475 | PR8 PB2 gene expression qPCR, individual replicates (A/PR/8/34 virus [8]; [12]): 0.006621 and 0.01468 and 0.01232 and 0.01635 and 0.03014 and 0.01618 and 0.02349 and 0.009706 and 0.004275
